Molecular target: T1, recombinant human CL receptor/RAMP1 (Homo sapiens, UniProt O60894+Q16602)
T1 construct: expressed in transfected cells; membranes
Assay: RECOMBINANT RECEPTOR BINDING ASSAY (125I-hCGRP)
Conditions: 125I-hCGRP binding to membranes of HEK 293 cells expressing recombinant human CL receptor/RAMP1; stated as 'generally ... less than about'
Method: RECOMBINANT RECEPTOR: Human CL receptor (Genbank accession number L76380) was subcloned into the expression vector pIREShyg2 (BD Biosciences Clontech) as a 5′NheI and 3′ PmeI fragment. Human RAMP1 (Genbank accession number AJ001014) was subcloned into the expression vector pIRESpuro2 (BD Biosciences Clontech) as a 5′NheI and 3′NotI fragment. HEK 293 cells (human embryonic kidney cells; ATCC #CRL-1573) were cultured in DMEM with 4.5 g/L glucose, 1 mM sodium pyruvate and 2 mM glutamine supplemented with 10% fetal bovine serum (FBS), 100 units/mL penicillin and 100 μg/mL streptomycin, and maintained at 37° C. and 95% humidity. Cells were subcultured by treatment with 0.25% trypsin with 0.1% EDTA in HBSS. Stable cell line generation was accomplished by co-transfecting 10 μg of DNA with 30 μg Lipofectamine 2000 (Invitrogen) in 75 cm^2 flasks. CL receptor and RAMP1 expression constructs were co-transfected in equal amounts. Twenty-four hours after transfection the cells were diluted and selective medium (growth medium+300 μg/mL hygromycin and 1 μg/mL puromycin) was added the following day. A clonal cell line was generated by single cell deposition utilizing a FACS Vantage SE (Becton Dickinson). Growth medium was adjusted to 150 μg/mL hygromycin and 0.5 μg/mL puromycin for cell propagation.
RECOMBINANT RECEPTOR BINDING ASSAY: Cells expressing recombinant human CL receptor/RAMP1 were washed with PBS and harvested in harvest buffer containing 50 mM HEPES, 1 mM EDTA and Complete protease inhibitors (Roche). The cell suspension was disrupted with a laboratory homogenizer and centrifuged at 48,000 g to isolate membranes. The pellets were resuspended in harvest buffer plus 250 mM sucrose and stored at −70° C. For binding assays, 20 μg of membranes were incubated in 1 ml binding buffer (10 mM HEPES, pH 7.4, 5 mM MgCl2, and 0.2% BSA) for 3 hours at room temperature containing […] ^125I-hCGRP (GE Healthcare) and antagonist. The assay was terminated by filtration through 96-well GFB glass fiber filter plates (PerkinElmer) that had been blocked with 0.05% polyethyleneimine. The filters were washed 3 times with ice-cold assay buffer (10 mM HEPES, pH 7.4 and 5 mM MgCl2). Scintillation fluid was added and the plates were counted on a Topcount (Packard). Non-specific binding was determined and the data analysis was carried out with the apparent dissociation constant (Ki) determined by using a non-linear least squares fitting the bound CPM data to the equation below:
[formula] […]

T1 sequence (Q16602 23-461): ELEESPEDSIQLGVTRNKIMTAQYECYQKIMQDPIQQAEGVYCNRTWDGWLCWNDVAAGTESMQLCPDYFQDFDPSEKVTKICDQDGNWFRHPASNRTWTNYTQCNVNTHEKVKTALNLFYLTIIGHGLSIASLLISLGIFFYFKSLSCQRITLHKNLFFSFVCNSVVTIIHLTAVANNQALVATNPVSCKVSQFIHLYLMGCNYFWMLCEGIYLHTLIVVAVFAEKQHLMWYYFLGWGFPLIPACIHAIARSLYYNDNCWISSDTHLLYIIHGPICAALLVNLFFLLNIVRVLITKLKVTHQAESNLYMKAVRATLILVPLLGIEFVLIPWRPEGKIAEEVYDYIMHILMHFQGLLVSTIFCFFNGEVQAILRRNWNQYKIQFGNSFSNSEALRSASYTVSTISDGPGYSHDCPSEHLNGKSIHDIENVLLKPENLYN
T1 sequence (O60894 27-148): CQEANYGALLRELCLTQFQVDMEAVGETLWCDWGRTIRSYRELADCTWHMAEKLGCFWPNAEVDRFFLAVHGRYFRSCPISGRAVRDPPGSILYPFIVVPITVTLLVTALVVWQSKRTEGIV

Ki | Compound
< 50 µM | CN1C[C@@](C)(c2cc(F)cc(F)c2)N(CCCc2ccc3c(c2)C[C@@]2(C3)C(=O)Nc3ncccc32)C(=O)C12CCCC2 [Example 9]
< 50 µM | CN1C[C@@](C)(c2cc(F)cc(F)c2)N(C/C=C/c2ccc3c(c2)C[C@@]2(C3)C(=O)Nc3ncccc32)C(=O)C12CCCC2 [Example 8]
< 50 µM | C[C@@]1(c2cc(F)cc(F)c2)CNC2(CCCC2)C(=O)N1CCOc1ccc2c(c1)C[C@@]1(C2)C(=O)Nc2ncccc21 [Example 13]
< 50 µM | CN1C[C@@](C)(c2cc(F)cc(F)c2)N(CCOc2ccc3c(c2)C[C@@]2(C3)C(=O)Nc3ncccc32)C(=O)C12CCCC2 [Example 15]
